Measured values as given in BigSolDB 2.1.

Cc1cc(C)c(C(=O)P(=O)(C(=O)c2c(C)cc(C)cc2C)c2ccccc2)c(C)c1
Conditions	solubility (mole fraction)
in acetonitrile, 295.4 K	0.00463
in acetonitrile, 303.2 K	0.00793
in acetonitrile, 308 K	0.0108
in acetonitrile, 313.3 K	0.0154
in acetonitrile, 318.1 K	0.0225
in acetonitrile, 323.2 K	0.03
in acetonitrile, 328.1 K	0.0421
in acetonitrile, 333.2 K	0.0611
in acetonitrile, 338.1 K	0.0863
in cyclohexane, 295.4 K	0.0016
in cyclohexane, 303.2 K	0.00239
in cyclohexane, 308.3 K	0.00323
in cyclohexane, 313.1 K	0.00414
in cyclohexane, 318.2 K	0.00542
in cyclohexane, 323.4 K	0.00732
in cyclohexane, 328.1 K	0.00966
in cyclohexane, 333.2 K	0.0123
in cyclohexane, 338.1 K	0.017
in cyclohexane, 343.3 K	0.0217
in ethanol, 295.4 K	0.00372
in ethanol, 303.2 K	0.00627
in ethanol, 307.2 K	0.00827
in ethanol, 313.1 K	0.0119
in ethanol, 318 K	0.0161
in ethanol, 324.1 K	0.0239
in ethanol, 328.3 K	0.0326
in ethanol, 333.2 K	0.0471
in ethyl acetate, 295.4 K	0.0178
in ethyl acetate, 303.2 K	0.0259
in ethyl acetate, 307.9 K	0.0326
in ethyl acetate, 313.2 K	0.0406
in ethyl acetate, 318.2 K	0.0508
in ethyl acetate, 323.3 K	0.064
in ethyl acetate, 328.2 K	0.0842
in ethyl acetate, 333 K	0.103
in ethyl acetate, 338.1 K	0.127
in ethyl acetate, 343.2 K	0.16
in isopropanol, 295.4 K	0.00278
in isopropanol, 305.2 K	0.0055
in isopropanol, 308.2 K	0.0068
in isopropanol, 313.3 K	0.0098
in isopropanol, 318 K	0.0137
in isopropanol, 324.1 K	0.0205
in isopropanol, 328.1 K	0.0281
in isopropanol, 333.2 K	0.04
in isopropanol, 338.3 K	0.0556
in isopropanol, 343.2 K	0.0793
in methanol, 295.4 K	0.00235
in methanol, 303.2 K	0.00434
in methanol, 308.3 K	0.00629
in methanol, 313.1 K	0.00909
in methanol, 318.2 K	0.0134
in methanol, 323.4 K	0.0195
in methanol, 328 K	0.0283
in methanol, 333.2 K	0.0427
in n-hexane, 295.4 K	0.00151
in n-hexane, 303.2 K	0.00218
in n-hexane, 308.1 K	0.00277
in n-hexane, 313.2 K	0.00323
in n-hexane, 318.1 K	0.00389
in n-hexane, 322.9 K	0.00442
in n-hexane, 328.1 K	0.00525
in n-hexane, 333.2 K	0.00635
